Assay results: patent publication US7816075B2, “Methods and compositions using stearoyl-CoA desaturase to identify triglyceride reducing therapeutic agents” (Xenon Pharmaceuticals Inc., priority 2000, dated 2010)

Experiments:
SCD = molecular target: T1, SCD (Homo sapiens, UniProt O00767); conditions: known from the literature; cited from earlier work
T1 sequence (O00767 1-359): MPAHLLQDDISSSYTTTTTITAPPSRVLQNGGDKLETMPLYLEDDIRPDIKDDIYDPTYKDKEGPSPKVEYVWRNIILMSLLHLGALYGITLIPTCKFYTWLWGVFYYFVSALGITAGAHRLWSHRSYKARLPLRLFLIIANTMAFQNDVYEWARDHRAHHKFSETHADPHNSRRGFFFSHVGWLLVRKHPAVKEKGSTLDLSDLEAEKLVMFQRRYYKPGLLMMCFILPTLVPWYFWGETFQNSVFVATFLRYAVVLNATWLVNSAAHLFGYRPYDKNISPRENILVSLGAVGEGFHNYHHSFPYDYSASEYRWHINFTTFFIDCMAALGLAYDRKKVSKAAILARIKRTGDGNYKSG

SCD1 mRNA = conditions: known from the literature; cited from earlier work
SCD1 = molecular target: T2, SCD1 (Mus musculus, UniProt P13516); assay: SCD1 desaturase activity assay, transfer of 3H from 3H-stearoyl CoA to water in liver microsomes; assay type: biochemical; conditions: for inhibition of SCD1: pre-conjugated to CoA (microsomes incubated with CoA and ATP before 3H-stearoyl CoA)
T2 construct: from tissue; host or cells: mouse liver microsomes (wild type, after a high carbohydrate fat-free diet)
T2 sequence (P13516 1-355): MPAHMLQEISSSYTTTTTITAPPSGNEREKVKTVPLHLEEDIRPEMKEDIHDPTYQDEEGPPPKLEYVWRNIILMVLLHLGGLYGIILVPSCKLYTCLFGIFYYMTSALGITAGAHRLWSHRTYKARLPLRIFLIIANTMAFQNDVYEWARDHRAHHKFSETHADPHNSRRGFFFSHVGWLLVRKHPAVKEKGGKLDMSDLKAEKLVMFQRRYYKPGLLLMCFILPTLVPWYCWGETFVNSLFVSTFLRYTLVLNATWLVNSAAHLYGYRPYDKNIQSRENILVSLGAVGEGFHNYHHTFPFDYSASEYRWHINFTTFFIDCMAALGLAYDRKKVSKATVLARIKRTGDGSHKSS
Procedure: Microsomes from wild type livers were used for this experiment. A turnover number for SCD1 activity under these conditions was estimated at 2 nmol/min/mg protein, which is about half that observed at 37° C.
Livers were collected from wild type and SCD1 knockout mice following 3 days on a high carbohydrate fat-free diet (this induces SCD1 expression in liver by about 50-fold), homogenized and a portion used for microsome purification. ^3H-water production was determined for 15 minutes at RT (room temperature) in both homogenate and microsome preparations at equivalent protein concentration, followed by quenching the reaction with acid and using charcoal to separate substrate from product. Quenching the sample with acid prior to the addition of substrate offers a blank, or control containing background radioactivity without any desaturation reaction. […] The “window”, or SCD1-dependent desaturation in this assay, is a highly visible and significant 160-fold difference between wild type and SCD1 knockout microsomes.
Microsomes from wild type mice were used to test the effectiveness of three known inhibitors of SCD1: conjugated linoleic acid (CLA), 9-thia stearic acid (9-thia) and sterculic acid (SA). […] This experiment establishes that SCD1 activity can be inhibited with known inhibitors but they appear to require conjugation with CoA. An important use of this screening assay is to find small molecules that are potent inhibitors of SCD1 biological activity without conjugation to CoA.
In a preferred embodiment, the assay makes use of ^3H-stearoyl CoA (with the ^3H on the 9 and 10 carbon atoms), the substrate for SCD1. Desaturation by SCD1, produces oleoyl CoA and 3H-water molecules. The reaction is run at room temperature, quenched with acid and then activated charcoal is used to separate unreacted substrate from the radioactive water product. The charcoal is sedimented and amount of radioactivity in the supernatant is determined by liquid scintillation counting. This assay is specific for SCD1-dependent desaturation as judged by the difference seen when comparing the activity in wild type and SCD1-knockout tissues. Further, the method is easily adapted to high throughput as it is cell-free, conducted at room temperature and is relatively brief (1 hour reaction time period versus previous period of 2 days). This procedure is illustrated more fully in FIGS. 17 to 20.

[1] = tested on: human SCD mRNA expression; assay: Northern blot of SCD mRNA in treated HepG2 cells; assay type: cell-based; conditions: range of doses, cholesterol 10 μg/ml with 1 μg/ml 25-hydroxycholesterol, FIG. 15
Procedure: FIG. 15. Human HepG2 cells cultured and treated with a range of doses of arachidonic acid, DHA or 10 μg/ml cholesterol or EPA as indicated. Total mRNA was isolated and quantified. Isolation and Analysis of RNA-Total RNA was isolated from HepG2 cells using the acid guanidinium-phenol-chloroform extraction method. Twenty micrograms of total RNA was separated by 0.8% agarose/2.2 M formaldehyde gel electrophoresis and transferred onto nylon membrane. The membrane was hybridized with ^32P-labeled human SCD cDNA probe generated by PCR as follows: pAL15 probe was used as control for equal loading. We tested whether the human SCD gene expression was also repressed by cholesterol and polyunsaturated fatty acids. Human HepG2 cells were cultured and then treated with 100 μM arachidonic acid, DHA or 10 μg/ml cholesterol and 1 μg/ml of 25-hydroxycholesterol cholesterol as we have described previously. Total mRNA was isolated and subjected to northern blot analysis using a probe corresponding to the human cDNA and generated by the PCR method using primers based on published human SCD cDNA sequence.

human SCD promoter = assay: Human SCD promoter-luciferase reporter (pSCD-500) in transfected HepG2 cells; assay type: cell-based; conditions: for SCD promoter activity: HepG2 cells co-transfected with mature SREBP-1a, in the presence of cholesterol, fatty acids as albumin complexes (data not shown)
Procedure: The decrease in promoter activity in the reporter construct correlated with decreases in endogenous SCD mRNA and protein levels. […] Our studies indicate that like the mouse SCD1 gene, the human SCD gene is regulated by polyunsaturated fatty acids and cholesterol at the level of gene transcription and that SREBP plays a role in the transcriptional activation of this gene. Cell Culture and DNA transfections—HepG2 cells, were grown in Low Glucose DMEM supplemented with 10% Fetal Bovine Serum and 1% Penicillin/Streptomycin solution and maintained at 37 C, 5% CO2 in a humidified incubator. Cells were passaged into 6 cm dishes to give 40-70% confluence in about 12-16 hours. Cells were then transfected with 5 μg plasmid DNA per plate of pSCD-500 or the Basic PGL3 reporter as well as well as the pRL-TK, internal controls (Promega) using the LT-1 transfection reagent (Pan Vera). After 48 hours, cells were rinsed with PBS and then treated in Williams' E Media, a fatty acid-free media, containing insulin, dexamethasone, and appropriate concentrations of albumin-conjugated fatty acids as indicated in figures and legends. Cells were also treated with ethanol alone (as control) or cholesterol (10 μg/mL) and 25-OH cholesterol (1 μg/mL) dissolved in ethanol. After an additional 24 h, extracts were prepared and assayed for luciferase activity. Non-transfected cells were used as the blank and Renilla Luciferase was used as an internal control. Cell extracts were assayed for protein according to Lowry, and all results were normalized to protein concentration as well as to renilla luciferase counts. Each experiment was repeated at least three times, and all data are expressed as means±SEM. […] To observe the regulatory effects of mature SREBP-1a and PUFAs on the activity of SCD promoters, HepG2 hepatic cells were transiently co-transfected with 20 ng (per 6-cm dish) of plasmid DNA containing the human SCD promoter as described above but this time the transfections were carried out in the presence of cholesterol to inhibit the maturation of the endogenous SREBP and thus ensure that there was little mature form of the endogenous SREBP present in the cells. After transfection, the cells were then treated with, arachidonic acid, EPA and DHA as albumin complexes and luciferase activity was then assayed using a luminometer. If SREBP mediates PUFA repression of the human SCD gene, SCD promoter activity would not diminish upon treatment the transfected cells with PUFA.

SCD protein = assay: Western blot of SCD protein in treated HepG2 cells; assay type: cell-based, human; conditions: western blot of protein extracts (data not shown)
Procedure: Immunoblotting—Cell extracts were prepared from HepG2 cells that had been treated with the various fatty acids or cholesterol as described by Heinemann et al (17). The same amount of protein (60 μg) from each fraction was subjected to 10% SDS-polyacrylamide gel electrophoresis and transferred to Immobilon-P transfer membranes at 4° C. After blocking with 10% non-fat milk in TBS buffer (pH 8.0) plus 0.5% Tween at 4° C. overnight, the membrane was washed and incubated with rabbit anti-rat SCD as primary antibody (17) and goat anti-rabbit IgG-HRP conjugate as the secondary antibody. Visualization of the SCD protein was performed with ECL western blot detection kit. We tested whether the human SCD gene expression was also repressed by cholesterol and polyunsaturated fatty acids. Human HepG2 cells were cultured and then treated with 100 μM arachidonic acid, DHA or 10 μg/ml cholesterol and 1 μg/ml of 25-hydroxycholesterol cholesterol as we have described previously. Total mRNA was isolated and subjected to northern blot analysis using a probe corresponding to the human cDNA and generated by the PCR method using primers based on published human SCD cDNA sequence.

[2] = added as the free fatty acid, microsomes from wild type mice (FIG. 19 panel A)

Which “inhibition of SCD enzyme activity” value (SCD) does the source give for `CCCCC/C=C\C=C\CCCCCCCCC(=O)O` [Cis-12, trans-10 conjugated linoleic acid] here?
The value was “effectively inhibit SCD enzyme activity”.

What about the “abundance of SCD1 mRNA” value (SCD1 mRNA) of the same compound?
The value was “reduce the abundance of SCD1 mRNA”.

For conjugated linoleic acid, which “suppression of SCD1 activity” value (SCD1; [2]) is on record?
Its value is “none were effective”.

And the “inhibition of SCD1” value (SCD1; FIG. 19 panel B)?
Its value is “graded inhibition”.

Which results are given for `CCCCCCCCC1=C(CCCCCCCC(=O)O)C1` [sterculic acid, 8-(2-octyl-cyclopropenyl)octanoic acid]?
suppression of SCD1 activity (SCD1; [2]): none were effective; inhibition of SCD1 (SCD1; FIG. 19 panel B): graded inhibition; suppression of SCD1 activity (SCD1; pre-conjugated to CoA, preincubation condition, FIG. 19 panel B): ~100%

With `CC/C=C\C/C=C\C/C=C\C/C=C\C/C=C\C/C=C\CCC(=O)O` [DHA] as the compound, how does the “human SCD mRNA expression” value [1] read?
The value was “decreased the human SCD mRNA expression in a dose dependent manner”.

What about the SCD promoter activity (human SCD promoter) of the same compound?
The SCD promoter activity was “continued to repress SCD promoter activity with only a slight attenuation”.

For `CC(C)CCC[C@@H](C)[C@H]1CC[C@H]2[C@@H]3CC=C4C[C@@H](O)CC[C@]4(C)[C@H]3CC[C@]12C` [cholesterol], which “human SCD mRNA expression” value [1] is on record?
The value was “decreased the human SCD mRNA expression in a dose dependent manner”.

What about the “levels of the SCD protein” value (SCD protein) of the same compound?
Its value is “decreased the levels of the SCD protein”.

What about the SCD promoter-luciferase activity (human SCD promoter; transiently transfected HepG2 cells) of the same compound?
Its SCD promoter-luciferase activity is “decreased the SCD promoter-luciferase activity”.

What does the source list for `CCCCC/C=C\C/C=C\C/C=C\C/C=C\CCCC(=O)O` [AA, arachidonic acid]?
human SCD mRNA expression [1]: decreased the human SCD mRNA expression in a dose dependent manner; SCD promoter activity (human SCD promoter): continued to repress SCD promoter activity with only a slight attenuation

With `CC/C=C\C/C=C\C/C=C\C/C=C\C/C=C\CCCC(=O)O` [EPA] as the compound, how does the SCD promoter activity (human SCD promoter) read?
The SCD promoter activity was “continued to repress SCD promoter activity with only a slight attenuation”.

Which “inhibition of SCD enzyme activity” value (SCD) does the source give for `CCCCCC/C=C/C=C\CCCCCCCC(=O)O` [Cis-9, trans-11 conjugated linoleic acid] here?
Its value is “does not”.
